The test deals with T1, human PF4 (Homo sapiens, UniProt P02776).
T1 construct: PF4 is a 70 amino acid, lysine-rich 7.8 kDa platelet-specific protein; made in house; host or cells: Escherichia coli BL21DE3 pLysS (pT7-7) and/or Drosophila S2 cells
T1 sequence (P02776 32-101): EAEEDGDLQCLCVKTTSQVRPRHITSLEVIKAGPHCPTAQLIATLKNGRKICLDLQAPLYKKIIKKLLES
Kind of test: Inhibition of PF4 tetramer formation (BS3 cross-linking, SDS-PAGE). Type of test: biochemical. As to conditions: for inhibition at 5 µM: 5 μM inhibitor; for inhibition at 5 µM / inhibition at 10 µM / inhibition at 1 µM / inhibition at 3 µM: read-out: % inhibition of PF4 tetramer formation at single concentration of inhibitor; for inhibition at 10 µM: 10 μM inhibitor (column A); for IC50: read-out: IC50 of PF4 tetramer formation inhibition; for inhibition at 1 µM: 1 μM inhibitor; for inhibition at 3 µM: 3 μM inhibitor (column A). How it is done: Compounds of Examples 1-38, 65-301, 303, 305, 307, 309, 311, 313, 314, 316, and 318-404 were tested using SDS PAGE analysis of BS3 crosslinked PF4 for their ability to prevent PF4 tetramer formation. […] See, Suvarna et al., Throm. Res, 122:211-220 (2008), which is hereby incorporated by reference, at least for a detailed description of this technique.
cDNA encoding human PF4 was cloned into the plasmid μMT/BiPN5-His A (Invitrogen Corp., Carlsbad CA) for expression in the Drosophila Expression System (Invitrogen, Carlsbad, CA). Cloning was performed using Bg1 II and Age I cloning sites. A hexanucleotide encoding Bg1 II site was then eliminated by site-directed mutagenesis so that the expressed protein contained full-length wild type (wt) PF4 or PF4^K50E with an identical sequence as their counterparts expressed in E. coli. See, method described in Sachais et al (Sachais, B. S. et al. (2012). Blood 119(25): 5955-5961). PF4 expression was induced by adding copper sulfate (0.5 mM). The induced S2 cells were incubated in serumfree Insect-Xpress™ media (Lonza, Walkersville, MD) for 3-5 days; supernatants were collected, sodium azide (0.02% final concentration) and EDTA (2.5 mM final concentration) were added, and the media were filtered through an Express® PLUS 0.22 μm filter (Millipore Corp., Billerica, MA).
Wild-type (WT) human PF4 in the pT7-7 vector (Novagen, Madison, WI) was expressed in the Escherichia coli strain BL21DE30 pLysS (Stratagene, La Jolla, CA), and purified and characterized as described by Rauova et al. (Rauova, L. et al. (2006). Blood 107(6): 2346-2353) and Park et al., (Blood, 75:1290-1295 (1990)), which are hereby incorporated by reference. Briefly, recombinant protein was isolated from the supernatant of the bacterial lysate by affinity chromatography using a HiTrap high-performance (HP) affinity column. WT PF4 was purified from the media on a heparin HiTrap® column on an ÄTKAPrime™ system (GE Healthcare) at 4° C. in Tris (10 mM), EDTA (1 mM), and pH 8 buffer. Media was loaded in buffer containing NaCl (0.5 M) and PF4 was eluted at 1.8 M NaCl using a linear gradient. Fractions containing purified PF4 as detected by silver staining of 12% NuPAGE Bis-Tris gels (Invitrogen) were pooled, concentrated and buffer exchanged into 50 mM HEPES, 0.5 M NaCl, pH—7.2 using an Amicon® Ultra centrifugal filter (3K NMWL, Millipore Corp). Protein was quantified using a BCA assay.
Compounds of Examples 1-38, 65-196, and 209-228 were then tested for their ability to inhibit PF4 tetramer formation using a cross-linking assay as described in Rauova cited above. Specifically, hPF4 (10 μg/ml) in phosphate-buffered saline (PBS) was incubated at 37° C. for 15 min in the absence of the antagonistic compounds (control sample) and presence of compounds. Cross-linking and SDS-PAGE analysis were then performed as described in “Analysis of PF4 multimerization” of Rauova. The relative amounts of PF4 in each of the monomer, dimer, trimer and tetramer form were calculated by analyzing the samples on a 12% SDS-polyacrylamide gel under reducing conditions. Bands were quantified using the Kodak ID Image Analysis system (Kodak, Rochester, NY). The SigmaMarker™ reagent served as the molecular weight standard. Data was compiled and bar graphed as % PF4 for the tetramer, trimer, dimer, and monomer as a function of concentration for the test and control samples.
This experiment was performed in a manner similar to experiment 1, but PF4 (10 μg/ml) in PBS was independently incubated with compounds of Examples 1-38, 65-196, and 209-228 for 60 min at room temperature, followed by the addition of cross-linking reagent bis(sulfosuccinimidyl)suberate (0.2 mM) for 30 min at room temperature. The reaction was stopped by adding NuPAGE® lithium dodecyl sulfate (LDS) sample buffer, and denatured by heating to 70° C. for 10 min according to the manufacturer's instructions. […]

The record followed here is patent US20250281424A1 (New York Blood Center, Inc, priority 2020, published 2025).

As a reminder, the IC50 is the point on the concentration scale where inhibition reaches its midpoint. Regarding `CC(=O)c1cccc(NC(=O)C2C(=O)c3ccc(C(=O)c4ccc5c(c4)C(=O)C(C(=O)Nc4cccc(C(C)=O)c4)C5=O)cc3C2=O)c1` (stereo not drawn) [Example 103, N-(3-acetylphenyl)-5-{2-[(3-acetylphenyl)carbamoyl]-1,3-dioxo-2,3-dihydro-1H-indene-5-carbonyl}-1,3-dioxo-2,3-dihydro-1H-indene-2-carboxamide], the inhibition at 5 µM worked out at 66%, the inhibition at 10 µM amounted to 77% and the IC50 was found to be 0.5 µM.
With `O=C1c2ccc(S(=O)(=O)c3ccc4c(c3)C(=O)C(C(=O)C3CCCCC3)C4=O)cc2C(=O)C1C(=O)C1CCCCC1` (stereo not drawn) [Example 288, 2-cyclohexanecarbonyl-5-[(2-cyclohexanecarbonyl-1,3-dioxo-2,3-dihydro-1H-inden-5-yl)sulfonyl]-2,3-dihydro-1H-indene-1,3-dione], the inhibition at 1 µM is 10%, the inhibition at 3 µM came to 15% and the concentration for half-maximal inhibition (IC50) was 3 µM.
For the compound `O=C(CC1CCCCC1)C1C(=O)c2ccc(S(=O)(=O)c3ccc4c(c3)C(=O)C(C(=O)CC3CCCCC3)C4=O)cc2C1=O` (stereo not drawn) [Example 148, 2-(2-cyclohexylacetyl)-5-{[2-(2-cyclohexylacetyl)-1,3-dioxo-2,3-dihydro-1H-inden-5-yl]sulfonyl}-2,3-dihydro-1H-indene-1,3-dione], the inhibition at 5 µM was found to be 59% and the inhibition at 10 µM was 90%.
In the case of `COCCOCCN(CC(=O)C1C(=O)c2ccc(Oc3ccc4c(c3)C(=O)C(C(=O)CN(CCOCCOC)C(=O)OC(C)(C)C)C4=O)cc2C1=O)C(=O)OC(C)(C)C` (stereo not drawn) [Example 390, tert-butyl N-{2-[5-({2-[2-(11,11-dimethyl-9-oxo-2,5,10-trioxa-8-azadodecan-8-yl)acetyl]-1,3-dioxo-2,3-dihydro-1H-inden-5-yl}oxy)-1,3-dioxo-2,3-dihydro-1H-inden-2-yl]-2-oxoethyl}-N-[2-(2-methoxyethoxy)ethyl]carbamate], the inhibition at 1 µM came out at 27% and the inhibition at 3 µM was found to be 31%.
Turning to `CC(C)(C)OC(=O)N1CCC[C@H]1C(=O)C1C(=O)c2ccc(C(c3ccc4c(c3)C(=O)C(C(=O)[C@@H]3CCCN3C(=O)OC(C)(C)C)C4=O)(C(F)(F)F)C(F)(F)F)cc2C1=O` (stereo partly drawn) [Example 195, tert-butyl (2S)-2-[5-(2-{2-[(2S)-1-[(tert-butoxy)carbonyl]pyrrolidine-2-carbonyl]-1,3-dioxo-2,3-dihydro-1H-inden-5-yl}-1,1,1,3,3,3-hexafluoropropan-2-yl)-1,3-dioxo-2,3-dihydro-1H-indene-2-carbonyl]pyrrolidine-1-carboxylate], the IC50 is 4 µM.
Turning to `CC(C)(C)OC(=O)NCC(=O)C1C(=O)c2ccc(S(=O)(=O)c3ccc4c(c3)C(=O)C(C(=O)CNC(=O)OC(C)(C)C)C4=O)cc2C1=O` (stereo not drawn) [Example 174, tert-butyl N-[2-(5-{[2-(2-{[(tert-butoxy)carbonyl]amino}acetyl)-1,3-dioxo-2,3-dihydro-1H-inden-5-yl]sulfonyl}-1,3-dioxo-2,3-dihydro-1H-inden-2-yl)-2-oxoethyl]carbamate], the inhibition at 5 µM was found to be 84%, the inhibition at 10 µM turned out to be 94% and the IC50 turned out to be 11 µM.
As to `NCC(=O)C1C(=O)c2ccc(C(=O)c3ccc4c(c3)C(=O)C(C(=O)CN)C4=O)cc2C1=O` (stereo not drawn) [Example 327, 2-(2-aminoacetyl)-5-[2-(2-aminoacetyl)-1,3-dioxo-2,3-dihydro-1H-indene-5-carbonyl]-2,3-dihydro-1H-indene-1,3-dione], the inhibition at 1 µM is 13% and the inhibition at 3 µM was 24%.
`O=C(c1ccc2c(c1)C(=O)C(C(=O)NCCOCC(F)(F)F)C2=O)c1ccc2c(c1)C(=O)C(C(=O)NCCOCC(F)(F)F)C2=O` (stereo not drawn) [Example 67, 5,5′-carbonylbis(1,3-dioxo-n-(2-(2,2,2-trifluoroethoxy)ethyl)-2,3-dihydro-1h-indene-2-carboxamide)]: the inhibition at 5 µM turned out to be 0% and the inhibition at 10 µM turned out to be 20%.
Regarding `COCCOCCNCC(=O)C1C(=O)c2ccc(S(=O)(=O)c3ccc4c(c3)C(=O)C(C(=O)CNCCOCCOC)C4=O)cc2C1=O` (stereo not drawn) [Example 397, 2-(2-{[2-(2-methoxyethoxy)ethyl]amino}acetyl)-5-{[2-(2-{[2-(2-methoxyethoxy)ethyl]amino}acetyl)-1,3-dioxo-2,3-dihydro-1H-inden-5-yl]sulfonyl}-2,3-dihydro-1H-indene-1,3-dione], the inhibition at 1 µM turned out to be 2% and the inhibition at 3 µM was determined as 9%.
For `O=C(NC1CCC1)C1C(=O)c2ccc(S(=O)(=O)c3ccc4c(c3)C(=O)C(C(=O)NC3CCC3)C4=O)cc2C1=O` (stereo not drawn) [Example 292, N-cyclobutyl-5-{[2-(cyclobutylcarbamoyl)-1,3-dioxo-2,3-dihydro-1H-inden-5-yl]sulfonyl}-1,3-dioxo-2,3-dihydro-1H-indene-2-carboxamide], the inhibition at 1 µM was determined as 47%, the inhibition at 3 µM came out at 100% and the IC50 was 1.26 µM.
For the compound `O=C(c1ccc2c(c1)C(=O)C(C(=O)[C@@H]1C[C@H]1C(=O)O)C2=O)c1ccc2c(c1)C(=O)C(C(=O)[C@@H]1C[C@H]1C(=O)O)C2=O` (stereo in doubt) [Example 222, (1R,2R)-2-(5-{2-[(1R,2R)-2-carboxycyclopropanecarbonyl]-1,3-dioxo-2,3-dihydro-1H-indene-5-carbonyl}-1,3-dioxo-2,3-dihydro-1H-indene-2-carbonyl)cyclopropane-1-carboxylic acid], the inhibition at 5 µM came to 94%, the inhibition at 10 µM worked out at 97% and the IC50 is 1.4 µM.
For `O=C(c1ccc2c(c1)C(=O)C(C(=O)NCc1ccc(F)cc1)C2=O)c1ccc2c(c1)C(=O)C(C(=O)NCc1ccc(F)cc1)C2=O` (stereo not drawn) [Example 26, 5,5′-carbonylbis(1,3-dioxo-indan-2-carboxylic acid ((4-fluorophenyl)methyl)-amide)] the same measures were 59%, 66% and 3.61 µM.
Take `O=C1c2ccc(Oc3ccc4c(c3)C(=O)C(C(=O)[C@H]3CCCN3)C4=O)cc2C(=O)C1C(=O)[C@@H]1CCNC1` (stereo partly drawn) [Example 356, 5-({1,3-dioxo-2-[(3R)-pyrrolidine-3-carbonyl]-2,3-dihydro-1H-inden-5-yl}oxy)-2-[(2R)-pyrrolidine-2-carbonyl]-2,3-dihydro-1H-indene-1,3-dione]: the inhibition at 1 µM was found to be 18% and the inhibition at 3 µM was 55%.
For `CCOCC(=O)C1C(=O)c2ccc(C(=O)c3ccc4c(c3)C(=O)C(C(=O)COCC)C4=O)cc2C1=O` (stereo not drawn) [Example 229, 2-(2-ethoxyacetyl)-5-[2-(2-ethoxyacetyl)-1,3-dioxo-2,3-dihydro-1H-indene-5-carbonyl]-2,3-dihydro-1H-indene-1,3-dione] the same measures were 43% and 53%.
